Series [1] addresses T1, GPR17 (Homo sapiens, UniProt Q13304). The note with it: activating ligands for GPR17; cited from earlier work.
Target sequence in this assay (Q13304 whole entry, species assumed): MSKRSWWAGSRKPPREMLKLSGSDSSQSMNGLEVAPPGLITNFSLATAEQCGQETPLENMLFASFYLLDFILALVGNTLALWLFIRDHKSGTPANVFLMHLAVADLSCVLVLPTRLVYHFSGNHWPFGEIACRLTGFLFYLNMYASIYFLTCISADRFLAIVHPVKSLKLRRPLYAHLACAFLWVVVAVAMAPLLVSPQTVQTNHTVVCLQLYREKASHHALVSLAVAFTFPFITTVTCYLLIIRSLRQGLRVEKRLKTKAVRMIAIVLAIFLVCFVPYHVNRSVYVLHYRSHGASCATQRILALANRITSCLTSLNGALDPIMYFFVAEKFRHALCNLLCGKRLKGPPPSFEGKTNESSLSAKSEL
Series [2] in a line: Determination of plasma and brain exposure (brain/plasma ratio, brain Kp). In kind it is in vivo. Conditions: male Sprague Dawley rats, 3 mg/kg intraperitoneal, approximately 45 minutes after administration, FIG. 3. As for the experimental part:
Male Sprague Dawley rats (n=2 per time point) were used to determine the brain penetration of the compounds at 15, 45 and 120 min after 3 mg/kg of intraperitoneal administration.
At each time point, following anesthesia (inhalation of isoflurane) and blood collection (1 mL cardiac puncture into tubes containing K2EDTA) rats were exsanguinated and the brain perfused via the left ventricle (50 mL of heparinized NaCl 0.9% (0.15 UI/mL) flow 50 mL/min).
Brain was collected and weighed. Plasma was obtained from blood samples by centrifugation (3000 g for 15 min at 4° C.). Brain and plasma samples were frozen until time of analysis.
At the time of analysis, brain samples were homogenized in plasma (1:4 v:v) and together with plasma samples, following protein precipitation, were analyzed by HPLC/MS-MS analysis.

The target of series [3] is T1, GPR17. The series can be described thus: Calcium mobilization functional assay (GPR17 Ca2+ assay). It is filed as cell-based. The arrangement: host or cells: Flp-In T-REx CHO. Conditions: CHO hGPR17 cells, inhibition of 50 nM MDL29,951, Calcium 5 dye, FLIPR; read-out: Ca2+ assay pIC50 (converted). An outline of the steps: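 pIC50 values were fitted with a 4-parameter logistic curve. They reflect test-compound inhibition of cytosolic Ca2+ release evoked by 50 nM MDL29,951, tracked as Calcium 5 fluorescence at room temperature. Cells were CHO Flp-In T-REx stably carrying human GPR17, induced with doxycycline 1 μg/mL for 16-20 h.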
Background: A change in cytosolic calcium serves as a functional read-out for many receptors and channels.
Target sequence in this assay (Q13304 whole entry): as the sequence (Q13304 whole entry, species assumed) above

Series [4] concerns the target T1, GPR17. The series can be described thus: cAMP accumulation functional assay (HTRF, Schild analysis). In kind it is cell-based. Set-up: host or cells: Flp-In T-REx CHO. The note with it: CHO hGPR17 cells, Schild analysis vs MDL29,951, 5 μM forskolin, read-out: cAMP assay pA2 (converted). The method, boiled down: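 Antagonist affinity (pA2) came from Schild plots of dose ratios, based on MDL29,951 concentration-response curves fitted by 4-parameter logistic. The read-out was HTRF cAMP in 5,000 doxycycline-induced CHO hGPR17 cells per well, with 30 min compound preincubation and 60 min stimulation, at room temperature in pH 7.4 buffer.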
Target sequence in this assay (Q13304 whole entry): as the sequence (Q13304 whole entry, species assumed) above

Series [5] concerns primary oligodendrocyte progenitor cells (OPCs). The experiment in a line: MBP fiber plates oligodendrocyte maturation/myelination assay. It is filed as cell-based, rat. Conditions: OPCs on aligned fiber plates, 1 μM test compound, 6 days, FIG. 2. How it is done:
Primary oligodendrocyte progenitor cells (OPCs) were isolated from the forebrains of Wistar rat pups at postnatal day 0 to 2. Cerebra were mechanically dissociated with a syringe and two different hollow needles (first 1.2×40 and then 0.60×30). Clump-free cell suspension was filtered through a 70-μm cell strainer and plated into poly-D-lysine-coated 75-cm^2 culture flasks in DMEM supplemented with 10% (v/v) heat-inactivated fetal calf serum, penicillin (100 units/mL), and streptomycin (0.1 mg/mL) with medium exchanged every second day. After 8 to 11 days at 37° C. in a humidified atmosphere of 5% CO2, mixed cultures were shaken at 240 rpm for 14-24 h to detach OPCs from astrocytes and microglia. To further enrich for OPCs, the suspension was plated onto uncoated Petri dishes for 45 min. Then, OPCs were seeded into poly-L-ornithine-coated plates and maintained at 37° C. in a humidified atmosphere of 5% CO2 in proliferating Neurobasal medium supplemented with 2% (v/v) B27, 2 mM GlutaMAX, 100 units/mL penicillin, 0.1 mg/mL streptomycin, 10 ng/mL PDGF-AA, and 10 ng/mL basic FGF changing the medium every second day.
The effects of negative modulators of GPR17 on primary oligodendrocytes maturation/myelination can be assessed in vitro by immunoassays using antibodies directed against Myelin Basic Protein (MBP), as marker for mature oligodendrocytes. […]

For series [6], the system named is cuprizone-induced demyelination. The experiment in a line: Acute cuprizone mice model (PLP immunohistochemistry in corpus callosum). It is filed as in vivo, C57BI/6 J mice. Conditions: oral, daily, 6 mg/kg and 20 mg/kg, vs vehicle p<0.01, FIG. 5.
The conditions of series [7]: exposure to air and light; cited from earlier work.
The conditions of series [8]: cited from earlier work.
The conditions of series [9]: in vivo; cited from earlier work.

Results on 15 molecules are retold here after patent publication US12071404B2, “Aza (indole)-, benzothiophene-, and benzofuran-3-sulfonamides” (UCB Pharma GmbH, priority 2016, dated 2024).

`NCC(=O)CCC(=O)O` [Compound 5-ALA, 5 amino levulinic acid]: the “amounts needed in the GPR17 assays (reported affinity quite low)” value in series [1] is on record as “three digit micromolar range”.
With `O=S(=O)(Nc1ccc(F)cc1F)c1c[nH]c2cc(Cl)ccc12` [Compound I-1, 6-chloro-N-(2,4-difluorophenyl)-1H-indole-3-sulfonamide], the “brain concentrations versus plasma exposure” value in series [2] is on record as “displayed brain concentrations paralleling plasma exposure”. The IC50 in series [3] was greater than 31.6 nM. Besides, the Kb in [4] is greater than 31.6 nM.
Turning to `N#Cc1ccc(NS(=O)(=O)c2c[nH]c3cc(Cl)ccc23)c(F)c1` [Compound I-116, 6-chloro-N-(4-cyano-2-fluorophenyl)-1H-indole-3-sulfonamide], in [5], the “myelin sheath length (myelinated fibers by fiber length)” value is “induced longer myelin sheaths”. Further, the IC50 in series [3] was less than 3.16 nM. The Kb in series [4] was less than 3.16 nM.
For `O=S(=O)(Nc1cc(F)c(Br)cc1F)c1c[nH]c2nc(Cl)ccc12` [Compound I-228, N-(4-bromo-2,5-difluorophenyl)-6-chloro-1H-pyrrolo[2,3-b]pyridine-3-sulfonamide], the “reappearance of myelin-associated proteins (PLP levels in corpus callosum)” value in [6] is recorded as “accelerates the reappearance of the myelin-associated proteins”.
Consider `CCOC(=O)C1CC1c1cc(F)c(NS(=O)(=O)c2c[nH]c3cc(Cl)ccc23)nc1F` (stereo not drawn) [Compound I-359, ethyl 2-(6-{[(6-chloro-1H-indol-3-yl)sulfonyl]amino}-2,5-difluoropyridin-3-yl)cyclopropanecarboxylate], for which the IC50 in series [3] was 3.16 to 31.6 nM. The Kb in series [4] was 3.16 to 31.6 nM.
Regarding `N#CCOc1cc(F)c(NS(=O)(=O)c2c[nH]c3c2ccc2cccnc23)cc1F` [Compound I-360, N-[4-(cyanomethoxy)-2,5-difluorophenyl]-1H-pyrrolo[3,2-h]quinoline-3-sulfonamide], in series [3], the IC50 was less than 3.16 nM. Further, in series [4], the Kb is less than 3.16 nM.
On to `N#CCc1cc(F)c(NS(=O)(=O)c2c[nH]c3c2ccc2cccnc23)cc1F` [Compound I-361, N-[4-(cyanomethyl)-2,5-difluorophenyl]-1H-pyrrolo[3,2-h]quinoline-3-sulfonamide], for which the IC50 in [3] is less than 3.16 nM. The Kb in series [4] is less than 3.16 nM.
Consider `N#CCCc1cc(F)c(NS(=O)(=O)c2c[nH]c3c2ccc2cccnc23)cc1F` [Compound I-362, N-[4-(2-cyanoethyl)-2,5-difluorophenyl]-1H-pyrrolo[3,2-h]quinoline-3-sulfonamide], for which the IC50 in [3] was 3.16 to 31.6 nM. Also, the Kb in series [4] is less than 3.16 nM.
`O=S(=O)(Nc1cc(F)c(OC(F)F)cc1F)c1c[nH]c2nc(C(F)F)ccc12` [Compound I-363, N-[4-(difluoromethoxy)-2,5-difluorophenyl]-6-(difluoromethyl)-1H-pyrrolo[2,3-b]pyridine-3-sulfonamide]: the IC50 in series [3] was 3.16 to 31.6 nM. In addition, in [4], the Kb was 3.16 to 31.6 nM.
`O=S(=O)(Nc1nc(F)c(OCCF)cc1F)c1c[nH]c2cc(Cl)ccc12` [Compound I-364, 6-chloro-N-[3,6-difluoro-5-(2-fluoroethoxy)pyridin-2-yl]-1H-indole-3-sulfonamide]: in series [3], the IC50 is less than 3.16 nM. In series [4], the Kb is less than 3.16 nM.
For the molecule `COCCOc1cc(F)c(NS(=O)(=O)c2c[nH]c3cc(Cl)ccc23)nc1F` [Compound I-365, 6-chloro-N-[3,6-difluoro-5-(2-methoxyethoxy)pyridin-2-yl]-1H-indole-3-sulfonamide], in series [3], the IC50 is 3.16 to 31.6 nM. Besides, the Kb in series [4] was 3.16 to 31.6 nM.
For `COc1nc(NS(=O)(=O)c2c[nH]c3c(OC(F)F)c(Cl)ccc23)c(F)cc1F` [Compound I-366, 6-chloro-7-(difluoromethoxy)-N-(3,5-difluoro-6-methoxypyridin-2-yl)-1H-indole-3-sulfonamide], the IC50 in [3] was 3.16 to 31.6 nM. In addition, the Kb in series [4] is 3.16 to 31.6 nM.
Take `NCc1[nH]cc(CCC(=O)O)c1CC(=O)O` [PBG, porphobilinogen]: in series [1], the “amounts needed in the GPR17 assays (reported affinity quite low)” value is given as “mM range”. The chemical stability result in series [7] was “rapidly decomposes after exposure to air and light”.
Take `CC(C)(O)c1ccccc1CC[C@@H](SCC1(CC(=O)O)CC1)c1cccc(/C=C/c2ccc3ccc(Cl)cc3n2)c1` [montekulast, Montelukast]: the protein binding result in series [8] is “high protein binding”. Moreover, the brain penetration entry in series [9] is “poor brain penetration”.
Take `O=C(Nc1cccc2c(=O)cc(-c3nnn[nH]3)oc12)c1ccc(OCCCCc2ccccc2)cc1` [pranlukast]: the protein binding entry in series [8] is reported as “high protein binding”. The brain penetration result in series [9] is recorded as “poor brain penetration”.
